PubChem BioAssay AID1963980 (Molecular Pharmacology Branch, DTP, NCI, 2024)

These compounds were tested on 475296-252-R-J1-PDC spheroid viability (assay: Anticancer human tumor 475296-252-R-J1-PDC patient-derived rectal carcinoma cell line growth inhibition [PI3K]). Conditions: second compound 0.00316 µM; first compound 3.16 µM; active compounds read low; spheroids with HUVEC and MSC.
Procedure, shortened: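 Three cell types, namely tumor cells, endothelial cells and mesenchymal stem cells, formed each spheroid. Combinations with four PI3K inhibitors were screened at clinically achievable concentrations decreasing by half-log, and spheroid viability was recorded.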
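Also: spheroids exposed to agents for seven days before readout.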

Compared with `CC(C)NCC(C(=O)N1CCN(c2ncnc3c2C(C)CC3O)CC1)c1ccc(Cl)cc1` (stereo unspecified) + COc1c(OCCCN2CCOCC2)ccc2c3n(c(=NC(=O)c4cnc(N)nc4)nc12)CCN3, `Cn1nccc1Nc1nccc(-c2ccn(C(CO)c3ccc(Cl)c(F)c3)c(=O)c2)n1` (stereo unspecified) + COc1c(OCCCN2CCOCC2)ccc2c3n(c(=NC(=O)c4cnc(N)nc4)nc12)CCN3 is higher in viability, T/C: 67.2% for the first, 77.2% for the second.

Compound `Cn1ncc(Cl)c1-c1cc(C(=O)NC(CN)Cc2cccc(F)c2)sc1Cl` (stereo unspecified) + COc1c(OCCCN2CCOCC2)ccc2c3n(c(=NC(=O)c4cnc(N)nc4)nc12)CCN3 has a viability, T/C of 66.1%.

Same assay, conditions: second compound 0.00316 µM; first compound 10 µM; active compounds read low; spheroids with HUVEC and MSC

First: CC(C)NCC(C(=O)N1CCN(c2ncnc3c2C(C)CC3O)CC1)c1ccc(Cl)cc1 (stereo unspecified) + COc1c(OCCCN2CCOCC2)ccc2c3n(c(=NC(=O)c4cnc(N)nc4)nc12)CCN3
Second: Cn1nccc1Nc1nccc(-c2ccn(C(CO)c3ccc(Cl)c(F)c3)c(=O)c2)n1 (stereo unspecified) + COc1c(OCCCN2CCOCC2)ccc2c3n(c(=NC(=O)c4cnc(N)nc4)nc12)CCN3
The viability, T/C of the first is lower: 55.1% for the first, 58.3% for the second.

For `Cn1ncc(Cl)c1-c1cc(C(=O)NC(CN)Cc2cccc(F)c2)sc1Cl` (stereo unspecified) + COc1c(OCCCN2CCOCC2)ccc2c3n(c(=NC(=O)c4cnc(N)nc4)nc12)CCN3, the viability, T/C was 55.7%.

Same assay, conditions: second compound 0.01 µM; first compound 0.00316 µM; active compounds read low; spheroids with HUVEC and MSC

`CCN1CCN(Cc2ccc(Nc3ncc(F)c(-c4cc(F)c5nc(C)n(C(C)C)c5c4)n3)nc2)CC1` + COc1c(OCCCN2CCOCC2)ccc2c3n(c(=NC(=O)c4cnc(N)nc4)nc12)CCN3 showed a viability, T/C of 95.6%.

Same assay, conditions: second compound 0.01 µM; first compound 0.01 µM; active compounds read low; spheroids with HUVEC and MSC

`CCN1CCN(Cc2ccc(Nc3ncc(F)c(-c4cc(F)c5nc(C)n(C(C)C)c5c4)n3)nc2)CC1` + COc1c(OCCCN2CCOCC2)ccc2c3n(c(=NC(=O)c4cnc(N)nc4)nc12)CCN3 gave a viability, T/C of 95%.

Same assay, conditions: second compound 0.01 µM; first compound 0.0316 µM; active compounds read low; spheroids with HUVEC and MSC

First: CC(C)NCC(C(=O)N1CCN(c2ncnc3c2C(C)CC3O)CC1)c1ccc(Cl)cc1 (stereo unspecified) + COc1c(OCCCN2CCOCC2)ccc2c3n(c(=NC(=O)c4cnc(N)nc4)nc12)CCN3
Second: CCN1CCN(Cc2ccc(Nc3ncc(F)c(-c4cc(F)c5nc(C)n(C(C)C)c5c4)n3)nc2)CC1 + COc1c(OCCCN2CCOCC2)ccc2c3n(c(=NC(=O)c4cnc(N)nc4)nc12)CCN3
The viability, T/C of the first is higher: 106% for the first, 93.1% for the second.

First: Cn1ncc(Cl)c1-c1cc(C(=O)NC(CN)Cc2cccc(F)c2)sc1Cl (stereo unspecified) + COc1c(OCCCN2CCOCC2)ccc2c3n(c(=NC(=O)c4cnc(N)nc4)nc12)CCN3
Second: Cn1nccc1Nc1nccc(-c2ccn(C(CO)c3ccc(Cl)c(F)c3)c(=O)c2)n1 (stereo unspecified) + COc1c(OCCCN2CCOCC2)ccc2c3n(c(=NC(=O)c4cnc(N)nc4)nc12)CCN3
The viability, T/C of the first is higher: 93.4% for the first, 88.5% for the second.

Same assay, conditions: second compound 0.01 µM; first compound 0.1 µM; active compounds read low; spheroids with HUVEC and MSC

Compared with `CC(C)NCC(C(=O)N1CCN(c2ncnc3c2C(C)CC3O)CC1)c1ccc(Cl)cc1` (stereo unspecified) + COc1c(OCCCN2CCOCC2)ccc2c3n(c(=NC(=O)c4cnc(N)nc4)nc12)CCN3, `CCN1CCN(Cc2ccc(Nc3ncc(F)c(-c4cc(F)c5nc(C)n(C(C)C)c5c4)n3)nc2)CC1` + COc1c(OCCCN2CCOCC2)ccc2c3n(c(=NC(=O)c4cnc(N)nc4)nc12)CCN3 is lower in viability, T/C: 99% for the first, 95.2% for the second.

First: Cn1ncc(Cl)c1-c1cc(C(=O)NC(CN)Cc2cccc(F)c2)sc1Cl (stereo unspecified) + COc1c(OCCCN2CCOCC2)ccc2c3n(c(=NC(=O)c4cnc(N)nc4)nc12)CCN3
Second: Cn1nccc1Nc1nccc(-c2ccn(C(CO)c3ccc(Cl)c(F)c3)c(=O)c2)n1 (stereo unspecified) + COc1c(OCCCN2CCOCC2)ccc2c3n(c(=NC(=O)c4cnc(N)nc4)nc12)CCN3
The viability, T/C of the first is higher: 91.5% for the first, 88.2% for the second.

Same assay, conditions: second compound 0.01 µM; first compound 0.316 µM; active compounds read low; spheroids with HUVEC and MSC

Going from `CC(C)NCC(C(=O)N1CCN(c2ncnc3c2C(C)CC3O)CC1)c1ccc(Cl)cc1` (stereo unspecified) + COc1c(OCCCN2CCOCC2)ccc2c3n(c(=NC(=O)c4cnc(N)nc4)nc12)CCN3 to `CCN1CCN(Cc2ccc(Nc3ncc(F)c(-c4cc(F)c5nc(C)n(C(C)C)c5c4)n3)nc2)CC1` + COc1c(OCCCN2CCOCC2)ccc2c3n(c(=NC(=O)c4cnc(N)nc4)nc12)CCN3, the viability, T/C rises from 96.5% to 104%.

Compared with `Cn1ncc(Cl)c1-c1cc(C(=O)NC(CN)Cc2cccc(F)c2)sc1Cl` (stereo unspecified) + COc1c(OCCCN2CCOCC2)ccc2c3n(c(=NC(=O)c4cnc(N)nc4)nc12)CCN3, `Cn1nccc1Nc1nccc(-c2ccn(C(CO)c3ccc(Cl)c(F)c3)c(=O)c2)n1` (stereo unspecified) + COc1c(OCCCN2CCOCC2)ccc2c3n(c(=NC(=O)c4cnc(N)nc4)nc12)CCN3 is higher in viability, T/C: 62.1% for the first, 88.4% for the second.

Same assay, conditions: second compound 0.01 µM; first compound 1 µM; active compounds read low; spheroids with HUVEC and MSC

With `CC(C)NCC(C(=O)N1CCN(c2ncnc3c2C(C)CC3O)CC1)c1ccc(Cl)cc1` (stereo unspecified) + COc1c(OCCCN2CCOCC2)ccc2c3n(c(=NC(=O)c4cnc(N)nc4)nc12)CCN3 the viability, T/C was 84.7%.
